Test results taken from US8871460B2, “Gamma-secretase modulatory compounds, methods for identifying same, and uses therefor” (Neurogenetic Pharmaceuticals, Inc., priority 2009, dated 2014).

Tests used:
[1] = test system: ε-cleavage of endogenous E-cadherin; conditions: cited from earlier work
GST-Pen2 = GST-Pen2 (Homo sapiens, UniProt Q9NZ42); assay: Surface plasmon resonance (SPR) assay, Biacore 2000; conditions: equilibrium responses fit to 1:1 binding isotherm; estimated
Procedure: A surface plasmon resonance (SPR) assay was performed using the Biacore™ 2000 system and control software (Biacore Life Sciences), essentially as described in Warnmark et al. (2001) J. Biol. Chem. 276:23397-23404. Compound 2 or L-685,458 (Sigma #L1790) were diluted 30 fold from a 25 mM stock in 100% DMSO, then each further diluted into running buffer containing 10 mM HEPES, 150 mM NaCl, 1% Triton X-100, pH 7.4. The compounds were run in a 3-fold dilution series over a GST-Pen2 or a free GST flow cell surface. The binding responses at equilibrium for each compound were fit to a 1:1 binding isotherm in order to estimate the binding affinities.

gamma-secretase [2] = assay: Sandwich ELISA of secreted Aβ from CHO-APPSwe cells; assay type: cell-based, Chinese Hamster; conditions: 18 h
Procedure: For ELISA analysis, CHO-APPSwe cells were seeded at a density of 100K/well in 96-well plates and allowed to adhere overnight. Medium was removed and replaced with complete DMEM medium containing either vehicle alone (DMSO) or a dose-response of Compound 2 or GSI 1 (the gamma-secretase inhibitor designated Inhibitor 1 in Tian et al. (2002) J. Biol. Chem. 277:31499-31505). Cells were incubated with compounds for 18 h, medium collected, and levels of secreted Aβ determined as described below. Cytotoxicity was determined on each well to be less than 30% using an Alamar Blue assay (see US Published Application 2005/0070538).
Secreted Aβ38 peptide was quantified using an ultra-sensitive sandwich ELISA assay kit (Meso Scale Detection catalog #K111FSE-2) and the Meso Scale Sector Imager 6000 for detection, according to the manufacturer's recommended protocol. Captured Aβ was quantified by comparing ECL signals of the samples to a standard curve (included on each plate) using synthetic Aβ prepared in complete DMEM medium. Aβ standard peptides were purchased from Bachem and stored at 0.5 mg/ml in hexafluoroisopropanol (HFIP) at −20° C.
Secreted Aβ40, Aβ42, and total Aβ were measured using specific sandwich ELISAs. Aβ peptides were captured using either an Aβ40-selective monoclonal antibody (B113), an Aβ42-selective monoclonal antibody (A387), or a total Aβ (1-x) capture monoclonal antibody raised to the amino-terminal region (B436) (see PCT publication WO 04/018997).
Briefly, 96-well white ELISA plates were coated with the appropriate capture antibody, wells were blocked with 1% BSA/TBS, and then samples were assayed in complete medium at an appropriate dilution so that the relative luminescent units (RLUs) were in the linear range of the standard curve. Following sample incubation for all ELISAs, plates were washed and exposed to an alkaline phosphatase (AP) conjugated secondary antibody. For Aβ40 and Aβ42, B436-AP was used as the second antibody in the sandwich ELISA. For the total Aβ ELISA, 4G8-biotin (Signet) (a monoclonal antibody that recognizes the Aβ17-24) was used in combination with strepavidin-AP as the detection complex. Thus, for this experiment, total Aβ includes Aβ peptides from 1-x, where x>24. Bound AP-conjugates were detected with CSPD-Sapphire II Luminescence Substrate (Applied Biosystems) and plates were read using a standard 96-well luminometer.
Captured Aβ was quantified by comparing RLU values of the samples to a standard curve (included on each plate) using synthetic Aβ prepared in complete media. Aβ standard peptides were purchased from Bachem and stored at 0.5 mg/ml in hexafluoroisopropanol (HFIP) at −20° C.

gamma-secretase [3] = assay: Immunoprecipitation and immunoblot analysis of Aβ in CHO-APPSwe conditioned medium; assay type: cell-based, Chinese Hamster; conditions: 18 h, Compound 2 0.3-1000 nM, GSI 1 3-1000 nM
Procedure: For this analysis, CHO-APPSwe cells were treated with concentrations of Compound 2 ranging from 0.3 nM to 1000 nM, or with concentrations of a gamma-secretase inhibitor, GSI 1 (Tian et al. (2002) J. Biol. Chem. 277 (35), 31499-31505) ranging from 3 nM to 1000 nM, or with vehicle (0.12% DMSO), for 18 hours. The conditioned medium was collected and immunoprecipitated with the anti-Aβ1-12 antibody B436. Samples were denatured and electrophoresed on gels prepared according to Wiltfang et al. (1997) Electrophoresis 18:527-532, with the following improvements: the separating gel contained 12.5% instead of 15% acrylamide, the comb gel layer was omitted, and glycerol (25%) and DTT (100 mM) were substituted for sucrose and β-mercaptoethanol in the 2× sample buffer. Chemically synthesized Aβ1-37, Aβ1-38, Aβ1-40 and Aβ1-42 peptides (Bachem) were run as size standards. After electrophoresis, the peptides were transferred to nitrocellulose filters and immunoblotted with a biotinylated B436 antibody to detect the various Aβ alloforms.

gamma-secretase [4] = assay: Mass spectrometry (SELDI) analysis of secreted Aβ from CHO-APPSwe cells; assay type: cell-based, Chinese Hamster; conditions: 1 μM, 18 h
Procedure: CHO-APPSwe cells were plated at 1 million cells per well in 6-well dishes and treated with complete DMEM medium containing either vehicle alone (DMSO), 1 μM Compound 2, or 1 μM GSI 1. Cells were incubated for 18 h, medium collected, and levels of secreted Aβ determined by mass spectrometry. Briefly, collected medium was immunoprecipitated overnight using antibody B436 coupled directly to Sepharose. Fifty ng of Aβ1-28 peptide was spiked into the medium as an internal standard. The Sepharose beads were then washed with TBS and bound Aβ was eluted with acetonitrile/0.1% trifluoroacetic acid. Eluate (3-6 μl) was spotted on NP20 chips (Ciphergen). Once the samples were dry, 20% CHCA matrix was spotted (1 μl) and allowed to dry. Chips were read on a SELDI Ciphergen mass spectrometer and Aβ peptides were identified by expected mass and comparison to standard purchased Aβ peptides (Bachem).

[5] = test system: ε-cleavage of a gamma-secretase substrate, Notch; assay: Epsilon cleavage assay: Notch (NICD) in HEK293 cells overexpressing APP751 and NΔE/S2; assay type: cell-based; conditions: 18 h
Procedure: The effect of Compound 2 treatment on ε-cleavage of a gamma-secretase substrate, Notch, was assessed using an HEK293 clonal cell line overexpressing APP751 and the Notch construct NΔE/S2. The NΔE/S2 construct lacks most of the extracellular domain of Notch (Schroeter et al. (1998) Nature 393:382-386), and when cleaved by γ-secretase results in production of the Notch intracellular domain (NICD). The cells were plated in replicate 24-well dishes and treated in triplicate with 30 μM of Compound 2, 1 μM of the gamma secretase inhibitor N—[N-(3,5-Difluorophenacetyl-L-alanyl)]S-phenylglycine t-butyl ester (DAPT), or vehicle (0.12% DMSO), for 18 h. Following compound treatment, conditioned medium was collected and analyzed for levels of secreted Aβ40, which confirmed compound activity. Cell lysates were prepared and separated on a 4-20% Tris-glycine gel and probed with an anti-NICD antibody (Cell Signaling, #2421) specific for the cleaved NICD, or anti-GAPDH, which served as a loading control for each lane. NICD bands were then quantified by densitometry and an average of replicate values was compared to the vehicle controls.

[6] = test system: γ-secretase-dependent cleavage of E-cadherin; assay: γ-secretase-dependent cleavage of E-cadherin in A431 cells, western blotting; assay type: cell-based, Human; conditions: overnight (16-18 h), then 6 h 1 μM staurosporine
Procedure: To measure γ-secretase-dependent cleavage of E-cadherin, an assay similar to that described by Marambaud et al. (2002) EMBO 21: 1948-1956 was developed. Human A431 cells which endogenously express detectable levels of E-cadherin and cleave full length E-cadherin upon treatment with staurosporine are treated overnight (16-18 h) with either test compound or control γ-secretase inhibitor (DAPT). Cleavage of E-cadherin is induced by a 6 h treatment with 1 μM staurosporine. Cell lysates are analyzed for levels of γ-CTF by western blotting and protein bands are quantified by densitometry.

[7] = to a lesser extent than Aβ37 and Aβ38

Sequence of GST-Pen2 (Q9NZ42 whole entry): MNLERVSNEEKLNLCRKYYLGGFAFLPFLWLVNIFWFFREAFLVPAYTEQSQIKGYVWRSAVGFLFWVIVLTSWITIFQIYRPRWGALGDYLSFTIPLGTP

SMILES: C[C@H](NC(=O)Cc1cc(F)cc(F)c1)C(=O)N[C@H]1N=C(c2ccccc2)c2ccccc2N(C)C1=O [Compound E]
- effect on E-cadherin CTF1 or CTF3 [1]: no effect
- formation of E-cadherin CTF2 [1]: inhibit

SMILES: CC(C)C[C@H](NC(=O)[C@H](Cc1ccccc1)C[C@@H](O)[C@H](Cc1ccccc1)NC(=O)OC(C)(C)C)C(=O)N[C@@H](Cc1ccccc1)C(N)=O [L-685,458]
- Kd (GST-Pen2): 1900 µM
- effect on E-cadherin CTF1 or CTF3 [1]: no effect
- formation of E-cadherin CTF2 [1]: inhibit

SMILES: COc1cc(C)c(Nc2nc(-c3ccc(-n4cnc(C)c4)c(F)c3)cs2)cc1C(C)C [Compound 2]
- Kd (GST-Pen2): 6.5 µM
- secreted Aβ40 level (gamma-secretase [2]; ELISA): concentration dependent decrease
- secreted Aβ42 level (gamma-secretase [2]; ELISA): concentration dependent decrease
- total Aβ level (gamma-secretase [2]; ELISA, Aβ 1-x, x>24): did not significantly change
- secreted Aβ38 level (gamma-secretase [2]; ultra-sensitive sandwich ELISA): markedly increased
- level of Aβ1-37 in conditioned medium (gamma-secretase [3]): increase
- level of Aβ1-38 in conditioned medium (gamma-secretase [3]): increase
- level of Aβ1-40 in conditioned medium (gamma-secretase [3]): lower
- Aβ37 compared to vehicle treated cells (gamma-secretase [4]): increased
- Aβ38 compared to vehicle treated cells (gamma-secretase [4]): increased
- Aβ33 compared to vehicle treated cells (gamma-secretase [4]; [7]): increased
- Aβ34 compared to vehicle treated cells (gamma-secretase [4]; [7]): increased
- inhibition of Notch processing ([5]; up to 30 μM): no detectable inhibition
- inhibition of E-cadherin cleavage/processing (γ-CTF) [6]: no detectable inhibition

SMILES: C[C@H](NC(=O)Cc1cc(F)cc(F)c1)C(=O)N[C@H](C(=O)OC(C)(C)C)c1ccccc1 [DAPT, N—[N-(3,5-Difluorophenacetyl-L-alanyl)]S-phenylglycine t-butyl ester, reference compound]
- inhibition of NICD formation ([5]; 1 μM): > 95%
- inhibition of E-cadherin cleavage/processing (γ-CTF) [6]: completely inhibits
- effect on E-cadherin CTF1 or CTF3 [1]: no effect
- formation of E-cadherin CTF2 [1]: inhibit
